Laboratory results: US20030157154A1, “Compositions containing hydroxy aromatic aldehydes and their use in treatments” (priority 2002, published 2003)

Columns and labels:
[1] = test system: PGE-2; assay: IL-1 induced PGE-2 in human skin fibroblasts (ELISA of culture medium); type: cell-based; conditions: Skin fibroblast, IL-1 500 picograms/ml, 24 hours, read-out: percent inhibition of IL-1 induced PGE-2; for inhibition at 1 µM: compound 1 μM; for inhibition at 10 µM: compound 10 μM; for inhibition at 50 µM: compound 50 μM
Experimental: (§1) For this experiment, human skin fibroblasts were seeded into 12 well culture dishes at a density of 80,000 cells/well in tissue culture medium and left overnight to attach to the dish. The next day, medium was removed and replaced with fresh medium containing either 1% ethanol as a diluent control, IL-1 at a concentration of 500 picograms/ml, or IL-1 plus one of the compounds under investigation at a concentration of 1, 10, 50 or 100 μM. Cells were incubated for an additional 24 hours and at this time, the medium was removed and assayed by ELISA for the presence of PGE-2 in the culture medium.

[2] = test system: PGE-2; assay: TPA-induced PGE-2 in human skin keratinocytes (ELISA of culture medium); type: cell-based; conditions: TPA 32 nM
Experimental: as §1
Similar in vitro studies as those described in Example 1 were run using human skin keratinocytes except that the aromatic aldehyde was not added t. The experimental set up was the same as described for Example 1, but replacing IL-1 with tetradecanoyl phorbol acetate (TPA) at a concentration of 32 nM as the agonist. Samples of 3,5-Di-tert-butyl, 4- hydroxybenzaldehyde (DTHB) in concentrations of either 10, 50, or 100 μM were tested. […] However, treatment with DTHB blocked PGE-2 production by at least 50.

| SMILES | inhibition at 1 µM [1] | inhibition at 10 µM [1] | inhibition at 50 µM [1] | inhibition at 10 µM ([2]; Keratinocyte, compound 10 μM, read-out: percent inhibition of TPA-induced PGE-2) | blocked PGE-2 production ([2]; DTHB 10, 50, or 100 μM) |
| --- | --- | --- | --- | --- | --- |
| CCOc1ccc(C=O)cc1 [4-EB, 4-ethoxybenzaldehyde, reference compound] | 10% | 6% | 100% | – | – |
| CC(C)(C)c1cc(C=O)cc(C(C)(C)C)c1O [DTHB, 3,5 di-tert-butyl-4-hydroxybenzaldehyde] | 3.3% | 44.4% | 100% | 87.9% | at least 50 |
